Experimental data from ChEMBL document CHEMBL5226286, “The application of isatin-based multicomponent-reactions in the quest for new bioactive and druglike molecules” (Eur J Med Chem, 2021).
Values after ≈ are worked out from the molar mass of the structure shown. Active and inactive are the calls of the source. The calls are words filed in the database; no cut-off is given here.

What was measured:
Pseudomonas aeruginosa [1] = assay: Antibacterial activity against Pseudomonas aeruginosa ATCC 85327; format: functional
Escherichia coli [2] = assay: Antibacterial activity against Escherichia coli incubated for 24 to 48 hrs by agar diffusion well method; format: functional; conditions: time 24-48 hrs
Streptococcus pneumoniae [3] = assay: Antibacterial activity against Streptococcus pneumoniae incubated for 24 to 48 hrs by agar diffusion well method; format: functional; conditions: time 24-48 hrs
Bacillus subtilis [4] = assay: Antibacterial activity against Bacillus subtilis RCMB 010067 incubated for 24 hrs by agar well diffusion method; format: functional
Bacillus subtilis [5] = assay: Antibacterial activity against Bacillus subtilis; format: functional
Streptococcus pneumoniae [6] = assay: Antibacterial activity against Streptococcus pneumoniae RCMB 010010 incubated for 24 hrs by agar well diffusion method; format: functional
Bacillus subtilis [7] = assay: Antibacterial activity against Bacillus subtilis incubated for 24 to 48 hrs by agar diffusion well method; format: functional; conditions: time 24-48 hrs
Pseudomonas aeruginosa [8] = assay: Antibacterial activity against Pseudomonas aeruginosa incubated for 24 to 48 hrs by agar diffusion well method; format: functional; conditions: time 24-48 hrs
Escherichia coli [9] = assay: Antimicrobial activity against Escherichia coli ATCC 25922; format: functional
K562 = assay: Antiproliferative activity against human K562 cells by MTT reduction assay; format: functional, cell-based
MCF7 [10] = assay: Antiproliferative activity against human MCF7 cells by MTT reduction assay; format: functional, cell-based
MCF7 [11] = assay: Anticancer activity against human MCF7 cells by MTT assay; format: functional, cell-based
HepG2 [12] = assay: Anticancer activity against human HepG2 cells by MTT assay; format: functional, cell-based
HCT-116 = assay: Anticancer activity against human HCT-116 cells by MTT assay; format: functional, cell-based
Staphylococcus aureus [13] = assay: Antibacterial activity against Staphylococcus aureus NCIM 2010 measured after 12 hrs; format: functional
Escherichia coli [14] = assay: Antibacterial activity against Escherichia coli by disc diffusion method; format: functional
Escherichia coli [15] = assay: Antibacterial activity against Escherichia coli RCMB 01100052 incubated for 24 hrs by agar well diffusion method; format: functional
Staphylococcus aureus [16] = assay: Antibacterial activity against Staphylococcus aureus assessed as zone of inhibition; format: functional
Pseudomonas aeruginosa [17] = assay: Antibacterial activity against Pseudomonas aeruginosa RCMB 010043 incubated for 24 hrs by agar well diffusion method; format: functional
Escherichia coli [18] = assay: Antibacterial activity against Escherichia coli NCIM 2688 measured after 8 hrs; format: functional
Bacillus subtilis [19] = assay: Antibacterial activity against Bacillus subtilis by disc diffusion method; format: functional
Bacillus subtilis [20] = assay: Antibacterial activity against Bacillus subtilis NCIM 2079 measured after 12 hrs; format: functional
Pseudomonas aeruginosa [21] = assay: Antibacterial activity against Pseudomonas aeruginosa by disc diffusion method; format: functional
Pseudomonas aeruginosa [22] = assay: Antibacterial activity against Pseudomonas aeruginosa NCIM […] measured after 8 hrs; format: functional
Staphylococcus aureus [23] = assay: Antibacterial activity against Staphylococcus aureus by disc diffusion method; format: functional
Escherichia coli [24] = assay: Antibacterial activity against Escherichia coli assessed as zone of inhibition; format: functional
Escherichia coli [25] = assay: Antibacterial activity against Escherichia coli MTCC 1689; format: functional
Klebsiella pneumoniae [26] = assay: Antibacterial activity against Klebsiella pneumoniae ATCC 29655; format: functional
Proteus mirabilis = assay: Antibacterial activity against Proteus mirabilis; format: functional
Streptococcus mutans = assay: Antibacterial activity against Streptococcus mutans PTCC 1601; format: functional
Enterococcus faecalis = assay: Antibacterial activity against Enterococcus faecalis ATCC 29737; format: functional
Micrococcus luteus = assay: Antibacterial activity against Micrococcus luteus PTCC 1110; format: functional
Staphylococcus aureus [27] = assay: Antibacterial activity against Staphylococcus aureus MTCC 96; format: functional
Staphylococcus aureus [28] = assay: Antibacterial activity against Staphylococcus aureus ATCC 25923; format: functional
Bacillus pumilus = assay: Antibacterial activity against Bacillus pumilus PTCC 1114; format: functional
[29] = system: Staphylococcus epidermidis; assay: Antibacterial activity against Staphylococcus epidermidis ATCC 12228; format: functional
Bacillus subtilis [30] = assay: Antibacterial activity against Bacillus subtilis ATCC 465; format: functional
Bacillus subtilis [31] = assay: Antibacterial activity against Bacillus subtilis MTCC 441; format: functional
HeLa [32] = assay: Anticancer activity against human HeLa cells measured after 48 hrs by MTT assay; format: functional, cell-based
NIH3T3 = assay: Anticancer activity against mouse 3T3 cells measured after 48 hrs by MTT assay; format: functional, cell-based; conditions: NIH3T3, 48 h
Leishmania major = assay: Antileishmanial activity against Leishmania major promastigotes incubated for 72 hrs by micrscopic analysis; format: functional
HepG2 [33] = assay: cells; format: functional, cell-based; conditions: Homo sapiens
MCF7 [34] = assay: cells; format: functional, cell-based; conditions: Homo sapiens
WI-38 = assay: Antiproliferative activity against human WI-38; format: functional, cell-based
MCF7 [35] = assay: Antiproliferative activity against human MCF7; format: functional, cell-based
HeLa [36] = assay: Anticancer activity against human HeLa cells by MTT assay; format: functional, cell-based
Staphylococcus aureus [37] = assay: Antibacterial activity against Staphylococcus aureus ATCC 29213; format: functional
Staphylococcus aureus [38] = assay: Antibacterial activity against methicillin resistant Staphylococcus aureus ATCC 43300; format: functional
Pseudomonas aeruginosa [39] = assay: Antibacterial activity against Pseudomonas aeruginosa No.010; format: functional
Klebsiella pneumoniae [40] = assay: Antibacterial activity against Klebsiella pneumoniae ATCC 700603; format: functional
Pseudomonas aeruginosa [41] = assay: Antibacterial activity against Pseudomonas aeruginosa ATCC 27853; format: functional
Pseudomonas aeruginosa [42] = assay: Antibacterial activity against multidrug resistant Pseudomonas aeruginosa 025; format: functional
Pseudomonas aeruginosa [43] = assay: Antibacterial activity against multidrug resistant Pseudomonas aeruginosa 034; format: functional
Escherichia coli [44] = assay: Antibacterial activity against Escherichia coli ATCC 25922; format: functional
ECa-109 cell line = assay: Antiproliferative activity against human EC109 cells; format: functional, cell-based
SMMC-7721 = assay: Antiproliferative activity against human SMMC-7721 cells; format: functional, cell-based
Ehrlich = assay: Cytotoxicity against mouse EAC cells assessed as reduction in cell viability incubated for 2 hrs by trypan blue staining based microscopic analysis; format: functional
MGC-803 = assay: Antiproliferative activity against human MGC-803 cells; format: functional, cell-based

Q: Which results are given for GENTAMICIN?
A: MIC (Pseudomonas aeruginosa [1]): 8 µg/mL; MIC (Escherichia coli [2]): 1.95 µg/mL; MIC (Streptococcus pneumoniae [3]): inactive; MIC (Bacillus subtilis [4]): inactive; MIC (Bacillus subtilis [5]): 0.125 µg/mL; MIC (Streptococcus pneumoniae [6]): inactive; MIC (Bacillus subtilis [7]): inactive; MIC (Pseudomonas aeruginosa [8]): 15.6 µg/mL; MIC (Escherichia coli [9]): 4 µg/mL

Q: What does the source list for `O=C1Nc2ccccc2[C@]12N1CSC[C@H]1[C@H](c1ccc(Br)cc1)[C@]21CCC/C(=C\c2ccc(Br)cc2)C1=O`?
A: IC50 (K562): 14.7 µM; IC50 (MCF7 [10]): 15.3 µM

Q: Which IC50 (MCF7 [11]) does the source give for `CN1C[C@H](c2ccc(Cl)cc2Cl)[C@@H](C(=O)c2cc3ccccc3[nH]2)C12C(=O)Nc1ccccc12` (stereo partly drawn) here?
A: 15 µM

Q: What about the IC50 (HepG2 [12]) of the same molecule?
A: > 50 µM

Q: And the IC50 (HCT-116)?
A: < 1 µM

Q: Which MIC (Escherichia coli [2]) does the source give for `CC1(C)S[C@@H]2[C@H](NC(=O)[C@H](N)c3ccccc3)C(=O)N2[C@H]1C(=O)O` [AMPICILLIN] here?
A: inactive

Q: What about the MIC90 (Staphylococcus aureus [13]) of the same molecule?
A: 1 µg/mL (≈ 2.86 µM)

Q: And the MIC (Streptococcus pneumoniae [3])?
A: 0.015 µg/mL (≈ 0.0429 µM)

Q: What about the MIC (Escherichia coli [14]) of the same molecule?
A: 100 µg/mL (≈ 286 µM)

Q: What about the MIC (Escherichia coli [15]) of the same molecule?
A: inactive

Q: What about the “diameter of the inhibition zone (DIZ)” value (Staphylococcus aureus [16]) of the same molecule?
A: 6 mm

Q: What about the MIC (Pseudomonas aeruginosa [17]) of the same molecule?
A: inactive

Q: And the MIC90 (Escherichia coli [18])?
A: 1.46 µg/mL (≈ 4.18 µM)

Q: What about the MIC (Bacillus subtilis [19]) of the same molecule?
A: 250 µg/mL (≈ 715 µM)

Q: And the MIC90 (Bacillus subtilis [20])?
A: 10.3 µg/mL (≈ 29.5 µM)

Q: And the MIC (Pseudomonas aeruginosa [21])?
A: 100 µg/mL (≈ 286 µM)

Q: And the MIC90 (Pseudomonas aeruginosa [22])?
A: 4.36 µg/mL (≈ 12.5 µM)

Q: What about the MIC (Staphylococcus aureus [23]) of the same molecule?
A: 250 µg/mL (≈ 715 µM)

Q: What about the MIC (Bacillus subtilis [7]) of the same molecule?
A: 0.007 µg/mL (≈ 0.02 µM)

Q: What about the MIC (Pseudomonas aeruginosa [8]) of the same molecule?
A: inactive

Q: What about the “diameter of the inhibition zone (DIZ)” value (Escherichia coli [24]) of the same molecule?
A: 6 mm

Q: Which MIC (Escherichia coli [25]) does the source give for `CN(C)[C@@H]1C(O)=C(C(N)=O)C(=O)[C@@]2(O)C(O)=C3C(=O)c4c(O)cccc4[C@@](C)(O)[C@H]3C[C@@H]12` [TETRACYCLINE] here?
A: 10 µg/mL (≈ 22.5 µM)

Q: What about the MIC (Klebsiella pneumoniae [26]) of the same molecule?
A: 16 µg/mL (≈ 36 µM)

Q: And the MIC (Proteus mirabilis)?
A: 15 µg/mL (≈ 33.8 µM)

Q: What about the MIC (Streptococcus mutans) of the same molecule?
A: 2 µg/mL (≈ 4.5 µM)

Q: And the MIC (Enterococcus faecalis)?
A: 8 µg/mL (≈ 18 µM)

Q: What about the MIC (Micrococcus luteus) of the same molecule?
A: 4 µg/mL (≈ 9 µM)

Q: What about the MIC (Staphylococcus aureus [27]) of the same molecule?
A: 5 µg/mL (≈ 11.3 µM)

Q: And the MIC (Staphylococcus aureus [28])?
A: 4 µg/mL (≈ 9 µM)

Q: And the MIC (Bacillus pumilus)?
A: 8 µg/mL (≈ 18 µM)

Q: And the MIC [29]?
A: < 2 µg/mL

Q: What about the MIC (Bacillus subtilis [30]) of the same molecule?
A: 4 µg/mL (≈ 9 µM)

Q: What about the MIC (Bacillus subtilis [31]) of the same molecule?
A: 10 µg/mL (≈ 22.5 µM)

Q: Which results are given for `O=C1/C(=C/c2cccc([N+](=O)[O-])c2)CCC[C@]12[C@H]1CCCN1[C@]1(C(=O)Nc3ccccc31)[C@H]2c1cccc([N+](=O)[O-])c1`?
A: IC50 (HeLa [32]): 4.8 µM; IC50 (NIH3T3): 19.1 µM; MIC (Leishmania major): 6.8 µM (≈ 3.84 µg/mL)

Q: What does the source list for `CCOC(=O)C1=C(C)NC(=S)NC12C(=O)Nc1c(Cl)cc(Cl)cc12` (stereo not drawn)?
A: IC50 (HepG2 [33]): 28.4 µM; IC50 (MCF7 [34]): 21.3 µM

Q: What does the source list for `CN1C(=O)C2(SC[C@@H](C(=O)O)[C@@H]2C(=O)c2ccc(Cl)c(Cl)c2)c2ccccc21` (stereo partly drawn)?
A: IC50 (WI-38): 55.1 µM; IC50 (MCF7 [35]): 36.3 µM

Q: How did the IC50 (HeLa [36]) turn out when `CN1C[C@@H](c2ccccc2Cl)[C@H](C(=O)c2c(O)c3ccccc3[nH]c2=O)[C@@]12C(=O)Nc1ccccc12` was run?
A: 10.7 µM

Q: `COc1ccc(C2C3CCCN3C3(C(=O)Nc4ccccc43)C2C(=O)c2ccco2)cc1` (stereo not drawn) was tested. Which MIC (Staphylococcus aureus [37]) did it give?
A: 64 µg/mL (≈ 149 µM)

Q: And the MIC (Staphylococcus aureus [38])?
A: 128 µg/mL (≈ 299 µM)

Q: And the MIC (Pseudomonas aeruginosa [39])?
A: 16 µg/mL (≈ 37.3 µM)

Q: What about the MIC (Klebsiella pneumoniae [40]) of the same molecule?
A: 128 µg/mL (≈ 299 µM)

Q: And the MIC (Pseudomonas aeruginosa [41])?
A: 15 µg/mL (≈ 35 µM)

Q: And the MIC (Pseudomonas aeruginosa [42])?
A: 16 µg/mL (≈ 37.3 µM)

Q: And the MIC (Pseudomonas aeruginosa [43])?
A: 32 µg/mL (≈ 74.7 µM)

Q: And the MIC (Escherichia coli [44])?
A: 128 µg/mL (≈ 299 µM)

Q: How did the IC50 (MCF7 [10]) turn out when `O=c1[nH]cc(F)c(=O)[nH]1` [FLUOROURACIL] was run?
A: 78.3 µM

Q: What about the IC50 (ECa-109 cell line) of the same molecule?
A: 10.6 µM

Q: And the IC50 (SMMC-7721)?
A: 9.7 µM

Q: And the ED25 (Ehrlich)?
A: 40 microg/cm3

Q: What about the IC50 (MGC-803) of the same molecule?
A: 7.6 µM
